Source: patent publication US7405081B2, “Methods and kits for identifying scavengers of reactive oxygen species (ROS)” (priority 2001, dated 2008)
Marks after values point to notes of the source that are not given here.

Key:
katA-gfp fusion = conditions: AG6 in MG/L, 30-120 μM H2O2, 2 hours
Procedure: To determine if H2O2 can induce the katA expression, AG6 was grown in MG/L liquid medium overnight at 28° C. The cells were harvested and resuspended in fresh MG/L liquid medium to a final concentration of OD600=0.5. Aliquots (2 ml) of the cultures were transferred into sterile tubes, and H2O2 was added to the tubes to final concentrations of 30 μM, 60 μM and 120 μM. The cell suspensions were incubated at 28° C. for 2 hours. Then 1 ml of each cell suspension was centrifuged, washed and resuspended in the Laemmli (1970) sample buffer, and subjected to Western blot as described later.
To determine whether the expression of katA can be induced by H2O2, like some of other bacterial catalases (Loewen, 1997), AG6 was treated with low concentrations of H2O2 (30-120 μM) in liquid MG/L medium and the katA-gfp expression levels were then determined.

[1] = test system: katA-gfp fusion in AG6 cells; test: Extracellular catalase added to IB plates, GFP expression of AG6 cells; assay type: cell-based, Agrobacterium tumefaciens; conditions: 1 or 5 microgram per ml in IB plates
Procedure: Catalase purchased from Sigma was added into IB plates at a final concentration of 1 or 5 microgram per ml. AG6 cells (carrying the katA-gfp fusion) were then grown on the IB plate. […] To ensure that the catalase in the IB medium was still active, hydrogen peroxide was dropped onto the catalase-containing plate. Air bubbles were instantly visible in the catalase-containing plate; no air bubble was found in the control catalase-free IB plate. […] Therefore, it can be concluded that extracellular catalase could not remove the intracellular hydrogen peroxide.

[2] = Peroxidase activity staining of cell extracts; assay type: biochemical, Agrobacterium tumefaciens; conditions: same cell extracts
[3] = Catalase activity assay in whole bacterial cells (Amplex Red Catalase Assay Kit); assay type: cell-based, Agrobacterium tumefaciens; conditions: whole cells grown on IB plates
Procedure: Catalase activity assay: The catalase activity in whole bacterial cells was determined as previously described (Maciver and Hansen, 1996) except using the Amplex Red Catalase Assay Kit (Molecular Probes Inc., USA). Briefly, A. tumefaciens strains were grown at 28° C. for 24 hr on IB plates. The cells were harvested, washed and resuspended at OD600=1.0 in 50 mM phosphate-buffer (pH 7.4). For the strains with the wild type katA [A348, AG6 (pXQ9), and AG6 (pXQ23)], 100 μl cell suspension of each sample was incubated with 50 μl 40 μM H2O2 at time intervals of 0, 30 sec, 1 min and 2 min.
For the strains with the katA mutants [AG6, AG6 (pXQ11), AG6 (pXQ22), AG6 (pXQ26) and AG6 (pXQ27)], 100 μl cell suspension of each sample was incubated with 50 μl 5 μM H2O2 at time intervals of 0, 1, 2, and up to 6 min. The amount of H2O2 left after degradation by the bacterial catalase was then determined by adding 50 μl Amplex Red reagent N-acetyl-3, 7-dihydroxyphenoxazine at 25 μM and 0.4 U/ml horse radish peroxidase provided by the kit. The fluorometric assay was conducted by the same procedure as described above for the measurement of intracellular H2O2. The cell suspensions without the added H2O2 were used as the blank. Solutions of crystalline bovine catalase (Sigma) were used to standardize this assay.
The catalase activity in whole bacterial cells was determined as described above in Example 1 (“Catalase activity assay”).

aopB-gfp = aopB-gfp expression in strain CGI1 (specificity control); assay type: cell-based, Agrobacterium tumefaciens; conditions: pXQ9 introduced into CGI1, IB (pH 5.5)
Procedure: To study the katA gene expression in different genetic backgrounds, A. tumefaciens strains A348, AG6, AG6 (pSW172), AG6 (pXQ9), A613, CGI1 and CGI1 (pXQ9) were grown at 28° C. for 24 hours on IB (pH 5.5) agar plates. The fluorescence of each strain was determined as described above.
To determine if katA could specifically repress katA-gfp, pXQ9 was introduced into a different mini-Tn5 transposon mutant strain CGI1, which contained the transposon insertion at a chromosomal gene aopB and could produce bright green fluorescence under UV light.

Q: For `OO` [H2O2, hydrogen peroxide], which “katA-gfp expression levels in presence of H2O2” value (katA-gfp fusion) is on record?
A: Its value is “increased significantly”.

Q: For Catalase, which “Repression of katA-gfp expression by catalase added to the medium” value [1] is on record?
A: Its value is “did not repress katA-gfp expression”.

Q: With “KatA: Agrobacterium tumefaciens catalase encoded by katA; putative protein of 723 amino acids, 78.7 kDa” as the compound, how does the “Peroxidase activity associated with the catalase activity bands” value [2] read?
A: The value was “no peroxidase activity”.

Q: What about the Catalase activity ([3]; gene on plasmid in AG6, driven by katA and lac promoters (pXQ23, pXQ26, pXQ27)) of the same compound?
A: Its Catalase activity is 77145.5 ± 440.3 unit/10^8 cells.

Q: And the Catalase activity ([3]; gene on plasmid in AG6, driven by katA promoter (pXQ9, pXQ11, pXQ22))?
A: Its Catalase activity is 3997.3 ± 459.1 unit/10^8 cells.

Q: And the Catalase activity ([3]; strain AG6 (katA disrupted by mini-Tn5))?
A: Its Catalase activity is 175.2 ± 20.2^c unit/10^8 cells.

Q: And the Catalase activity ([3]; wild type strain A348)?
A: Its Catalase activity is 1486.2 ± 149.5 unit/10^8 cells.

Q: And the “Repression of aopB-gfp expression” value (aopB-gfp)?
A: Its value is “did not repress”.
